The values that follow come from patent US11524966B1 (Valo Early Discovery, Inc., priority 2017, dated 2022).

The target in the experiment is T1, USP28 (His-tagged USP28-FL-mammalian) (Homo sapiens, UniProt Q96RU2).
T1 construct: Expression of USP28 (1-1077)-TEV-6*His (pTT5 vector); made in house; host or cells: Expi293f cells (pTT5 vector)
T1 sequence (Q96RU2 1-1077): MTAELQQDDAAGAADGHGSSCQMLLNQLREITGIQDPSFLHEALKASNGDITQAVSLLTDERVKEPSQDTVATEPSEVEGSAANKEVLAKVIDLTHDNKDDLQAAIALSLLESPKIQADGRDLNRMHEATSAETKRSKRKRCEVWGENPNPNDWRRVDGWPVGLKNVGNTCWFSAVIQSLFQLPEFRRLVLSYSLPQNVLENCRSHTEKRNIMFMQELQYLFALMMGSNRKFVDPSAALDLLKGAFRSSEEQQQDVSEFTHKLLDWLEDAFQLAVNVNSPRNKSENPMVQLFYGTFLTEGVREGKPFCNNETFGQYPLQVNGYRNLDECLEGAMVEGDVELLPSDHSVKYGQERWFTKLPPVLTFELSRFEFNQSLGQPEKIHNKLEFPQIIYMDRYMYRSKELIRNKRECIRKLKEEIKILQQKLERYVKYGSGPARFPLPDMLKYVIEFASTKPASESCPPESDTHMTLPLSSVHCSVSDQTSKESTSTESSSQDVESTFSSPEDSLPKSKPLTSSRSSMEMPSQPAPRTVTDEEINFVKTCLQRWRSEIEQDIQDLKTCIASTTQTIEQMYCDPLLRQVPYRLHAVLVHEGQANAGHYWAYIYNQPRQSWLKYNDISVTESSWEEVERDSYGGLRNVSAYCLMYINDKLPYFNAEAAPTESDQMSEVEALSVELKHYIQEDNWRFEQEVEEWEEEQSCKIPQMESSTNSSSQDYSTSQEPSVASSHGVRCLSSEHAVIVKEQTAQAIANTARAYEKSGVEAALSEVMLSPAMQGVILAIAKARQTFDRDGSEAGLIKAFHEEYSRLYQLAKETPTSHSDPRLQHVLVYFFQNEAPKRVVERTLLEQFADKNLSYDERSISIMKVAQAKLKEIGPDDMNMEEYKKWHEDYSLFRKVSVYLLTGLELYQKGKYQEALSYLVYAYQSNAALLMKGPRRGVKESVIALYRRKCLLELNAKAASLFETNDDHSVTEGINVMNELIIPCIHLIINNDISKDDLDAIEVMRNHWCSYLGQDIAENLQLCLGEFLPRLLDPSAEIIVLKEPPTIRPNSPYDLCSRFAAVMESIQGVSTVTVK
The experiment can be described thus: Ubiquitin-Rhodamine 110 Assay for USP28 Activity, Example A-1(a). The format is biochemical. Conditions: Ubiquitin-Rhodamine 110 assay, read-out: USP28 A-1(a) IC50 range. The procedure, abridged: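 Full-length His-tagged USP28 (1-1077, Expi293F-expressed; […]) was preincubated 30 min with compound (25 μM–1.3 nM, 10-point 3-fold) in 20 mM Tris-HCl pH 8.0, 3 mM BME, 0.03% BGG, 0.01% Triton X-100. Ub-Rh110 (25 nM) was then added for 45 min at room temperature, stopped with citric acid, and read by fluorescence (485/535 nm).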

Where two headings read alike, the source gives them in different places.

Broadly, the IC50 is the concentration that inhibits the measured activity by half. For `Cc1ccc2c(N)c(C(=O)N[C@H]3CCc4cc(N5CCNCC5)c(F)cc4C3)sc2n1` (single isomer, unassigned) [Example 21-8], where the note is “format Example A-1(a)”, the IC50 fell in the range of 200 to 2000 nM.

As to `Cc1ccc2c(N)c(C(=O)N[C@H]3CCc4c(F)c(N5CCNCC5)cc(F)c4C3)sc2n1` (single isomer, unassigned) [Example 22-1], for the setting “format Example A-1(a)”, the IC50 is 200 to 2000 nM.

In the case of `Cc1ccc2c(N)c(C(=O)N[C@@H]3CCc4c(F)c(N5CCNCC5)cc(F)c4C3)sc2n1` (single isomer, unassigned) [Example 22-2], the IC50 (format Example A-1(a)) was in the range of 1 to 50 nM.

`Cc1ccc2c(N)c(C(=O)N[C@H]3CCc4c(F)c(N5CC6CNCC(C5)O6)cc(F)c4C3)sc2n1` (single isomer, unassigned) [Example 22-3]: for the setting “format Example A-1(a)”, the 50% inhibitory concentration (IC50) lay within 200 to 2000 nM.

As to `Cc1ccc2c(N)c(C(=O)N[C@@H]3CCc4c(F)c(N5CC6CNCC(C5)O6)cc(F)c4C3)sc2n1` (single isomer, unassigned) [Example 22-4], for the setting “format Example A-1(a)”, the IC50 is 1 to 50 nM.

As for `Cc1ccc2c(N)c(C(=O)N[C@@H]3CCc4c(F)c(N5CC6CCC(C5)N6)cc(F)c4C3)sc2n1` (single isomer, unassigned) [Example 22-6], under “format Example A-1(a)”, the IC50 lay in the range of 200 to 2000 nM.

Consider `CO[C@H]1CN(c2ccc3c(n2)CC[C@H](NC(=O)c2sc4nc(C)cnc4c2N)C3)C[C@@H]1N` (single isomer, unassigned) [Example 23-1], for which the IC50 (format Example A-1(a)) lay in the range of 200 to 2000 nM.

Turning to `CO[C@H]1CN(c2ccc3c(n2)CC[C@@H](NC(=O)c2sc4nc(C)cnc4c2N)C3)C[C@@H]1N` (single isomer, unassigned) [Example 23-2], the IC50 (format Example A-1(a)) is over 2000 nM.

Take `Cc1ccc2c(N)c(C(=O)N[C@H]3COc4cc(C5(F)CCNCC5)ccc4C3)sc2n1` [Example 8-1, (R)-3-Amino-N-(7-(4-fluoropiperidin-4-yl)chroman-3-yl)-6-methylthieno[2,3-b]pyridine-2-carboxamide]: the IC50 (Example A-1(a)) was 1 to 50 nM.

`Cc1ccc2c(N)c(C(=O)N[C@H]3COc4cc(N5CCNCC5)cc(F)c4C3)sc2n1` [Example 10-1, (R)-3-amino-N-(5-fluoro-7-(piperazin-1-yl)chroman-3-yl)-6-methylthieno[2,3-b]pyridine-2-carboxamide]: the IC50 (Example A-1(a)) lay in the range of 1 to 50 nM.

With `CO[C@@H]1CN(c2cc(F)c3c(c2)OC[C@H](NC(=O)c2sc4nc(C)ccc4c2N)C3)C[C@H]1N` [Example 10-2, 3-amino-N-((R)-7-((3R,4R)-3-amino-4-methoxypyrrolidin-1-yl)-5-fluorochroman-3-yl)-6-methylthieno[2,3-b]pyridine-2-carboxamide], the IC50 (Example A-1(a)) fell in the range of 1 to 50 nM.

With `[2H]C1([2H])NC([2H])([2H])C([2H])([2H])N(c2cc(F)c3c(c2)OC[C@H](NC(=O)c2sc4nc(C)ccc4c2N)C3)C1([2H])[2H]` [Example 10-4, (R)-3-amino-N-(5-fluoro-7-(piperazin-l-yl-2,2,3,3,5,5,6,6-d8)chroman-3-yl)-6-methylthieno[2,3-b]pyridine-2-carboxamide], the IC50 (Example A-1(a)) is 1 to 50 nM.

Turning to `Cc1ccc2c(N)c(C(=O)N[C@@H]3COc4cc(N5CCNCC5)cc(F)c4C3)sc2n1` [Example 10-5, (S)-3-amino-N-(5-fluoro-7-(piperazin-1-yl)chroman-3-yl)-6-methylthieno[2,3-b]pyridine-2-carboxamide], the IC50 (Example A-1(a)) is 200 to 2000 nM.

For the compound `Cc1ccc2c(N)c(C(=O)N[C@H]3COc4cc(N5CC6CNCC(C5)O6)cc(F)c4C3)sc2n1` [Example 10-6, N-((3R)-7-(9-oxa-3,7-diazabicyclo[3.3.1]nonan-3-yl)-5-fluorochroman-3-yl)-3-amino-6-methylthieno[2,3-b]pyridine-2-carboxamide], where the note is “Example A-1(a)”, the IC50 was in the range of 1 to 50 nM.

As to `Cc1cc(C)c2c(N)c(C(=O)N[C@H]3COc4cc(N5CC6CC(C5)N6)cc(F)c4C3)sc2n1` [Example 10-7, N-((3R)-7-(3,6-diazabicyclo[3.1.1]heptan-3-yl)-5-fluorochroman-3-yl)-3-amino-4,6-dimethylthieno[2,3-b]pyridine-2-carboxamide], the IC50 (Example A-1(a)) lay in the range of 1 to 50 nM.

For the compound `Cc1cnc2c(N)c(C(=O)N[C@H]3COc4cc(N5CC6CC(C5)N6)cc(F)c4C3)sc2n1` [Example 10-8, N-((3R)-7-(3,6-diazabicyclo[3.1.1]heptan-3-yl)-5-fluorochroman-3-yl)-7-amino-3-methylthieno[2,3-b]pyrazine-6-carboxamide], the IC50 (Example A-1(a)) was 1 to 50 nM.

With `Cc1cc(C)c2c(N)c(C(=O)N[C@H]3COc4cc(N5CCNCC5)cc(F)c4C3)sc2n1` [Example 10-9, (R)-3-amino-N-(5-fluoro-7-(piperazin-1-yl)chroman-3-yl)-4,6-dimethylthieno[2,3-b]pyridine-2-carboxamide], the IC50 (Example A-1(a)) fell in the range of 1 to 50 nM.

For the compound `Cc1cnc2c(N)c(C(=O)N[C@H]3COc4cc(N5CCNCC5)cc(F)c4C3)sc2n1` [Example 10-10, (R)-7-amino-N-(5-fluoro-7-(piperazin-1-yl)chroman-3-yl)-3-methylthieno[2,3-b]pyrazine-6-carboxamide], under “Example A-1(a)”, the IC50 fell in the range of 1 to 50 nM.

Turning to `COc1ccc2c(N)c(C(=O)N[C@H]3COc4cc(N5CCNCC5)cc(F)c4C3)sc2n1` [Example 10-11, (R)-3-amino-N-(5-fluoro-7-(piperazin-1-yl)chroman-3-yl)-6-methoxythieno[2,3-b]pyridine-2-carboxamide], for the setting “Example A-1(a)”, the IC50 fell in the range of 1 to 50 nM.

In the case of `Cc1cnc2c(N)c(C(=O)N[C@H]3COc4cc(N5CC6CNCC(C5)O6)cc(F)c4C3)sc2n1` [Example 10-12, N-((3R)-7-(9-oxa-3,7-diazabicyclo[3.3.1]nonan-3-yl)-5-fluorochroman-3-yl)-7-amino-3-methylthieno[2,3-b]pyrazine-6-carboxamide], the concentration for half-maximal inhibition (IC50) (Example A-1(a)) lay in the range of 1 to 50 nM.

As to `Cc1cc(C)c2c(N)c(C(=O)N[C@H]3COc4cc(N5CC6CNCC(C5)O6)cc(F)c4C3)sc2n1` [Example 10-13, N-((3R)-7-(9-oxa-3,7-diazabicyclo[3.3.1]nonan-3-yl)-5-fluorochroman-3-yl)-3-amino-4,6-dimethylthieno[2,3-b]pyridine-2-carboxamide], for the setting “Example A-1(a)”, the IC50 was 1 to 50 nM.

On to `Cc1cc(C(F)(F)F)c2c(N)c(C(=O)N[C@H]3COc4cc(N5CCNCC5)cc(F)c4C3)sc2n1` [Example 10-14, (R)-3-amino-N-(5-fluoro-7-(piperazin-1-yl)chroman-3-yl)-6-methyl-4-(trifluoromethyl)thieno[2,3-b]pyridine-2-carboxamide], for which the IC50 (Example A-1(a)) is 1 to 50 nM.

In the case of `Cc1ccc2c(N)c(C(=O)N(C)[C@H]3COc4cc(N5CCNCC5)cc(F)c4C3)sc2n1` [Example 10-15, 3-amino-N-[(3R)-5-fluoro-7-(piperazin-1-yl)-3,4-dihydro-2H-1-benzopyran-3-yl)-N,6-dimethylthieno[2,3-b]pyridine-2-carboxamide], the IC50 (Example A-1(a)) is over 2000 nM.

On to `Cc1ccc2c(N)c(C(=O)N[C@H]3CCc4cc(N5CC6CCC(C5)N6)ccc4C3)sc2n1` [Example 11-1, N-((2S)-6-(3,8-diazabicyclo[3.2.1]octan-3-yl)-1,2,3,4-tetrahydronaphthalen-2-yl)-3-amino-6-methylthieno[2,3-b]pyridine-2-carboxamide], for which, for the setting “Example A-1(a)”, the IC50 lay within 1 to 50 nM.

`Cc1ccc2c(N)c(C(=O)N[C@@H]3CCc4cc(N5CC6CCC(C5)N6)ccc4C3)sc2n1` [Example 11-2, N-((2R)-6-(3,8-diazabicyclo[3.2.1]octan-3-yl)-1,2,3,4-tetrahydronaphthalen-2-yl)-3-amino-6-methylthieno[2,3-b]pyridine-2-carboxamide]: under “Example A-1(a)”, the IC50 lay in the range of 50 to 200 nM.

Take `Cc1ccc2c(N)c(C(=O)N[C@H]3COc4cc(N5CC6CCC(C5)N6)c(F)c(F)c4C3)sc2n1` [Example 13-3, N-((3R)-7-(3,8-diazabicyclo[3.2.1]octan-3-yl)-5,6-difluorochroman-3-yl)-3-amino-6-methylthieno[2,3-b]pyridine-2-carboxamide]: under “format Example A-1(a)”, the IC50 fell in the range of 200 to 2000 nM.

Turning to `Cc1ccc2c(N)c(C(=O)N[C@@H]3COc4cc(N5CC6CCC(C5)N6)c(F)c(F)c4C3)sc2n1` [Example 13-4, N-((3S)-7-(3,8-diazabicyclo[3.2.1]octan-3-yl)-5,6-difluorochroman-3-yl)-3-amino-6-methylthieno[2,3-b]pyridine-2-carboxamide], the IC50 (format Example A-1(a)) is 1 to 50 nM.
